Laboratory results reported in patent US5030760A, “Tetrahydrophthalimides, and their production and use” (Sumitomo Chemical Company, Ltd., priority 1981, dated 1991).

Legend:
barnyardgrass [1] = assay: Test Example 7, flooded paddy pot dripping, herbicidal activity; assay type: in vivo, Echinochloa crus-galli; settings: 3 weeks; also: ranges in brackets are in %
Experimental: (§1) The application of the tetrahydrophthalimides (I) as herbicides will be illustratively shown in the following Examples wherein the phytotoxicity to cultivated plants and the herbicidal activity on weeds were evaluated as follows: the aerial parts of the test plants were cut off and weighed (fresh weight); the percentage of the fresh weight of the treated plant to that of the untreated plant was calculated with the latter fresh weight taken as 100; and the crop damage and the herbicidal activity were evaluated by the standard given in the table below. The rating values of phytotoxicity, 0 and 1, and those of herbicidal effect, 5 and 4, are generally regarded as satisfactory to protect cultivated plants and control weeds, respectively. The rating values in the paddy field test alone were calculated from the dry weight of the test plants.
(§2) Wagner's pots (1/5000 are) were filled with paddy field soil and water was poured therein to make a flooded condition. Rice seedlings of the 3-leaf stage were transplanted and tubers of slender spikerush and arrowhead and the seeds of barnyardgrass, monochoria and broad-leaved weed were sowed therein and grown for 5 days. When germination occurs, a designed amount of the test compound formulated into an emulsifiable concentrate according to Preparation Example 2 was applied to the pots by dripping. The test plants were grown for a further 3 weeks, and herbicidal activity and phytotoxicity were examined. The herbicidal activity was evaluated in figures ranging from 0 to 5. The phytotoxicity to the crop plants was also indicated on the same standard as that of the herbicidal activity.

slender spikerush = assay: as above; assay type: in vivo, Eleocharis acicularis; settings: 3 weeks; also: ranges in brackets are in %
Experimental: as §1, §2

broad-leaved weed = assay: as above; assay type: in vivo; settings: 3 weeks; also: ranges in brackets are in %
Experimental: as §1, §2

rice plant = assay: Test Example 7, flooded paddy pot dripping, phytotoxicity to rice plant; assay type: in vivo; settings: 3 weeks; also: ranges in brackets are in %
Experimental: as §1, §2

monochoria = assay: Test Example 7, flooded paddy pot dripping, herbicidal activity; assay type: in vivo, Monochoria vaginalis; settings: 3 weeks; also: ranges in brackets are in %
Experimental: as §1, §2

arrowhead = assay: as above; assay type: in vivo, Sagittaria pygmaea; settings: 3 weeks; also: ranges in brackets are in %
Experimental: as §1, §2

velvetleaf [2] = assay: Test Example 1, foliar treatment, herbicidal activity; assay type: in vivo, Abutilon theophrasti; settings: 3 weeks; also: ranges in brackets are in %
Experimental: as §1
(§3) Plastic beakers (diameter, 10 cm; height, 10 cm) were filled with upland field soil, and the seeds of corn, barnyardgrass, wild oat, wild mustard and velvetleaf were separately sown in the beakers and grown for 2 weeks in the greenhouse. A designed amount of the test compound was sprayed to the foliage of the test plants by means of a small hand sprayer. After the spraying, the test plants were further grown for 3 weeks in the greenhouse, and herbicidal activity was examined. In this foliar treatment, the test compounds were formulated into an emulsifiable concentrate according to Preparation Example 2 and applied at a spray volume of 5 liters per are by dispersing it in water with the addition of a spreading agent.

corn [3] = assay: Test Example 1, foliar treatment, phytotoxicity to corn; assay type: in vivo; settings: 3 weeks; also: ranges in brackets are in %
Experimental: as §1, §3

sicklepod = assay: Test Example 3, soil surface spraying, herbicidal activity; assay type: in vivo, Cassia obtusifolia; settings: 20 days; also: ranges in brackets are in %
Experimental: as §1
(§4) Plastic trays (35 cm×25 cm×15 cm) were filled with upland field soil, and the seeds of tall morningglory, velvetleaf and sicklepod and the seeds of corn were sown therein. A designed amount of the test compounds formulated into a wettable powder according to Preparation Example 1 was dispersed in water and applied by spraying at a spray volume of 5 liters per are to the whole surface of the soil. After the spraying, the test plants were placed in a greenhouse and grown for 20 days, and herbicidal activity and phytotoxicity were examined.

wild oat = assay: Test Example 1, foliar treatment, herbicidal activity; assay type: in vivo, Avena fatua; settings: 3 weeks; also: ranges in brackets are in %
Experimental: as §1, §3

tall morningglory = assay: Test Example 3, soil surface spraying, herbicidal activity; assay type: in vivo, Ipomoea purpurea; settings: 20 days; also: ranges in brackets are in %
Experimental: as §1, §4

velvetleaf [4] = assay: as above; assay type: in vivo, Abutilon theophrasti; settings: 20 days
Experimental: as §1, §4

corn [5] = assay: Test Example 3, soil surface spraying, phytotoxicity to corn; assay type: in vivo; settings: 20 days; also: ranges in brackets are in %
Experimental: as §1, §4

barnyardgrass [6] = assay: Test Example 1, foliar treatment, herbicidal activity; assay type: in vivo, Echinochloa crus-galli; settings: 3 weeks; also: ranges in brackets are in %
Experimental: as §1, §3

wild mustard = assay: as above; assay type: in vivo, Brassica kaber; settings: 3 weeks
Experimental: as §1, §3
For Herbicidal activity, Velvetleaf in this document: ranges in brackets are in %.

CCCCCCOc1cc(N2C(=O)C3=C(CCCC3)C2=O)c(F)cc1Cl [compound 8]
Herbicidal activity, Barnyardgrass (barnyardgrass [1]; 1.25 g/are): 4 (70-89) | Herbicidal activity, Barnyardgrass (barnyardgrass [1]; 2.5 g/are): 5 (90-100) | Herbicidal activity, Barnyardgrass (barnyardgrass [1]; 5 g/are): 5 (90-100) | Herbicidal activity, Slender spikerush (slender spikerush; 1.25 g/are): 4 (70-89) | Herbicidal activity, Slender spikerush (slender spikerush; 2.5 g/are): 4 (70-89) | Herbicidal activity, Slender spikerush (slender spikerush; 5 g/are): 5 (90-100) | Herbicidal activity, Broad-leaved weed (broad-leaved weed; 1.25 g/are): 5 (90-100) | Herbicidal activity, Broad-leaved weed (broad-leaved weed; 2.5 g/are): 5 (90-100) | Herbicidal activity, Broad-leaved weed (broad-leaved weed; 5 g/are): 5 (90-100) | Phytotoxicity, Rice plant (rice plant; 1.25 g/are): 0 (0-9) | Phytotoxicity, Rice plant (rice plant; 2.5 g/are): 0 (0-9) | Phytotoxicity, Rice plant (rice plant; 5 g/are): 0 (0-9) | Herbicidal activity, Monochoria (monochoria; 1.25 g/are): 5 (90-100) | Herbicidal activity, Monochoria (monochoria; 2.5 g/are): 5 (90-100) | Herbicidal activity, Monochoria (monochoria; 5 g/are): 5 (90-100) | Herbicidal activity, Allowhead (arrowhead; 1.25 g/are): 4 (70-89) | Herbicidal activity, Allowhead (arrowhead; 2.5 g/are): 5 (90-100) | Herbicidal activity, Allowhead (arrowhead; 5 g/are): 5 (90-100)

CC(C)COc1cc(N2C(=O)C3=C(CCCC3)C2=O)c(F)cc1Cl [compound 5]
Herbicidal activity, Velvetleaf (velvetleaf [2]; 1.25 g/are): 5 (0) | Herbicidal activity, Velvetleaf (velvetleaf [2]; 5 g/are): 5 (0) | Phytotoxicity, Corn (corn [3]; 1.25 g/are): 0 (100) | Phytotoxicity, Corn (corn [3]; 5 g/are): 0 (100) | Herbicidal activity, Sicklepod (sicklepod; 5 g/are): 4 (1-10) | Herbicidal activity, Sicklepod (sicklepod; 10 g/are): 4 (1-10) | Herbicidal activity, Wild cat (wild oat; 1.25 g/are): 1 (41-60) | Herbicidal activity, Wild cat (wild oat; 5 g/are): 4 (1-10) | Herbicidal activity, Tall morningglory (tall morningglory; 5 g/are): 4 (1-10) | Herbicidal activity, Tall morningglory (tall morningglory; 10 g/are): 5 (0) | Herbicidal activity, Velvetleaf (velvetleaf [4]; 5 g/are): 5 (0) | Herbicidal activity, Velvetleaf (velvetleaf [4]; 10 g/are): 5 (0) | Phytotoxicity, Corn (corn [5]; 5 g/are): 0 (100) | Phytotoxicity, Corn (corn [5]; 10 g/are): 0 (100) | Herbicidal activity, Barnyardgrass (barnyardgrass [6]; 1.25 g/are): 2 (21-40) | Herbicidal activity, Barnyardgrass (barnyardgrass [6]; 5 g/are): 4 (1-10) | Herbicidal activity, Wild mustard (wild mustard; 1.25 g/are): 3 (11-20) | Herbicidal activity, Wild mustard (wild mustard; 5 g/are): 5 (0)

CCCCCCCOc1cc(N2C(=O)C3=C(CCCC3)C2=O)c(F)cc1Cl [compound 9]
Herbicidal activity, Barnyardgrass (barnyardgrass [1]; 1.25 g/are): 4 (70-89) | Herbicidal activity, Barnyardgrass (barnyardgrass [1]; 2.5 g/are): 4 (70-89) | Herbicidal activity, Barnyardgrass (barnyardgrass [1]; 5 g/are): 5 (90-100) | Herbicidal activity, Slender spikerush (slender spikerush; 1.25 g/are): 3 (50-69) | Herbicidal activity, Slender spikerush (slender spikerush; 2.5 g/are): 4 (70-89) | Herbicidal activity, Slender spikerush (slender spikerush; 5 g/are): 4 (70-89) | Herbicidal activity, Broad-leaved weed (broad-leaved weed; 1.25 g/are): 5 (90-100) | Herbicidal activity, Broad-leaved weed (broad-leaved weed; 2.5 g/are): 5 (90-100) | Herbicidal activity, Broad-leaved weed (broad-leaved weed; 5 g/are): 5 (90-100) | Phytotoxicity, Rice plant (rice plant; 1.25 g/are): 0 (0-9) | Phytotoxicity, Rice plant (rice plant; 2.5 g/are): 0 (0-9) | Phytotoxicity, Rice plant (rice plant; 5 g/are): 0 (0-9) | Herbicidal activity, Monochoria (monochoria; 1.25 g/are): 5 (90-100) | Herbicidal activity, Monochoria (monochoria; 2.5 g/are): 5 (90-100) | Herbicidal activity, Monochoria (monochoria; 5 g/are): 5 (90-100) | Herbicidal activity, Allowhead (arrowhead; 1.25 g/are): 3 (50-69) | Herbicidal activity, Allowhead (arrowhead; 2.5 g/are): 4 (70-89) | Herbicidal activity, Allowhead (arrowhead; 5 g/are): 4 (70-89)

CC(C)CCOc1cc(N2C(=O)C3=C(CCCC3)C2=O)c(F)cc1Cl [compound 11]
Herbicidal activity, Barnyardgrass (barnyardgrass [1]; 1.25 g/are): 4 (70-89) | Herbicidal activity, Barnyardgrass (barnyardgrass [1]; 2.5 g/are): 5 (90-100) | Herbicidal activity, Barnyardgrass (barnyardgrass [1]; 5 g/are): 5 (90-100) | Herbicidal activity, Slender spikerush (slender spikerush; 1.25 g/are): 4 (70-89) | Herbicidal activity, Slender spikerush (slender spikerush; 2.5 g/are): 4 (70-89) | Herbicidal activity, Slender spikerush (slender spikerush; 5 g/are): 5 (90-100) | Herbicidal activity, Broad-leaved weed (broad-leaved weed; 1.25 g/are): 5 (90-100) | Herbicidal activity, Broad-leaved weed (broad-leaved weed; 2.5 g/are): 5 (90-100) | Herbicidal activity, Broad-leaved weed (broad-leaved weed; 5 g/are): 5 (90-100) | Phytotoxicity, Rice plant (rice plant; 1.25 g/are): 0 (0-9) | Phytotoxicity, Rice plant (rice plant; 2.5 g/are): 0 (0-9) | Phytotoxicity, Rice plant (rice plant; 5 g/are): 0 (0-9) | Herbicidal activity, Monochoria (monochoria; 1.25 g/are): 5 (90-100) | Herbicidal activity, Monochoria (monochoria; 2.5 g/are): 5 (90-100) | Herbicidal activity, Monochoria (monochoria; 5 g/are): 5 (90-100) | Herbicidal activity, Allowhead (arrowhead; 1.25 g/are): 3 (50-69) | Herbicidal activity, Allowhead (arrowhead; 2.5 g/are): 4 (70-89) | Herbicidal activity, Allowhead (arrowhead; 5 g/are): 5 (90-100)
